The numbers were not newly measured in patent publication US10682361B2, “Sustained release bimatoprost, bimatoprost analogs, prostamides and prostaglandins for fat reduction” (ALLERGAN, INC., priority 2013, dated 2020), which cites them from elsewhere.

In one data set the test system is fat. The conditions noted are these: topical administration.
A further data set relates to adipocytes. The conditions noted are these: topical administration.

Take `CCNC(=O)CCC/C=C\C[C@@H]1[C@@H](/C=C/[C@@H](O)CCc2ccccc2)[C@H](O)C[C@@H]1O` [bimatoprost]: the clinical fat reduction entry in the data set with fat was “clinical evidence of fat reduction”. In addition, the “effect on adipocytes in animal models” value with adipocytes is “effectively prevent apidocyte formation and maturation and to atrophy adipocytes”.
